How the values were obtained:
Type in all cases: in vivo
ApoE−/− mice [1] = test: Treatment of ApoE−/− mice with nor-UDCA in comparison to UDCA (Experiment 3); details: for % plaques in the aortic arch (plaque area versus total area, en-face red oil): FIG. 12; for plaques in red-oil stained aortic valve cross-sections (histological analysis): FIG. 13 top
From the text: (§1) ApoE-deficient mice as described in Experiment 1 were used.
ApoE−/− mice (n=15) were fed with normal diet for 8 weeks post natum, followed by western chow diet (“high fat diet”) for another 8 weeks. The mice were then segregated into three groups with each group comprising five mice. In the control group, the mice were further fed with the western chow diet for additional four weeks. In the second group, the ApoE−/− mice were fed with a western chow diet comprising 0.5% w/w nor-UDCA for additional four weeks. Finally, in the third group, the ApoE−/− mice were fed with a western chow diet comprising 0.5% w/w UDCA for additional four weeks. Considering a food intake of 4 g/day of chow per mouse, this corresponds to 20 mg/day of nor-UDCA or UDCA, respectively, per mouse.
The experimental setup is depicted in FIG. 6.

ApoE−/− mice [2] = test: Prevention of atherosclerosis in ApoE−/− mice by nor-UDCA in comparison to UDCA (Experiment 4); details: prevention study, 0.5% w/w in western chow diet for 12 weeks
From the text: as §1
ApoE−/− mice (n=15) were fed with normal diet for 8 weeks post natum and then segregated into three groups with each group comprising five mice. In the control group, the mice were fed with the western chow diet for additional 12 weeks. In the second group, the ApoE−/− mice were fed with a western chow diet comprising 0.5% w/w nor-UDCA for additional 12 weeks. Finally, in the third group, the ApoE−/− mice were fed with a western chow diet comprising 0.5% w/w UDCA for additional 12 weeks. Considering a food intake of 4 g/day of chow per mouse, this corresponds to 20 mg/day of nor-UDCA or UDCA, respectively, per mouse.
Thus, in this experimental prevention setup, the mice are fed with diet known to force atherosclerotic plaque formation together with either UDCA or nor-UDCA (mice of the second and third group) having preventive effects on the plaque formation. When compared to a control fed with western chow diet only, the preventive effects can be studied.
The experimental setup is depicted in FIG. 14(a).

LDLR−/− mice = test: Treatment of LDLR−/− mice with nor-UDCA (Experiment 2); details: 0.5% w/w in western chow diet for 4 weeks after 8 weeks western chow diet; vs control; FIG. 5
From the text: In a second experiment (FIGS. 4 and 5), the effect of nor-UDCA in LDLR−/− mice that were raised on a western chow diet was investigated.
As for the ApoE-deficient mice, the LDLR-deficient mice are considered to be a bona-fide animal model of atherosclerosis development. If these mice are raised on a western chow diet they evolve typical symptoms of atherosclerosis involving atherosclerotic plaque formation in the aorta (FIG. 5).
LDLR−/− mice were produced as described in Ishebashi et. al. (J. Clin. Jnnvest., 1993, 92, 883-893). The 129-derived AB1 ES cell line was used. The strain was backcrossed to C57BL/6J mice for 10 generations. Ldlr^tm1Her/Ldlr^tm1Her involves: 129S7/SvEvBrd*C57BL/6. LDLR-deficient mice can also be obtained from the Jackson Laboratory (Maine, US) with the strain name B6.129S7-Ldlr^tm1Her/J (http://jaxmice.jax.org).
As in Experiment 1, ten mice being deficient in LDLR were raised on normal diet during the first 8 weeks post natum followed by the western chow diet for another eight weeks. Afterwards, the ten mice were separated into two groups for which the control group A received further feeding on a western chow diet for 4 weeks. In the test group B, the western chow diet of the following 4 weeks was supplemented with 0.5% w/w nor-UDCA. Considering a food intake of 4 g/day of chow per mouse, this corresponds to 20 mg/day of nor-UDCA per mouse. […]

ApoE−/− mice [3] = test: Treatment of ApoE−/− mice with nor-UDCA (Experiment 1); details: 0.5% w/w in western chow diet for 4 weeks after 8 weeks western chow diet, vs control
Procedure: In order to study the effects of nor-UDCA on atherosclerosis, ApoE-deficient mice were treated. To this end ApoE−/− mice as described in Piedrahita et. al. (PNAS, 1992, 89, 4471-4475) which carry the Apoe^tm1Unc mutation were back-crossed 10 times into the C57BL76J. ApoE-deficient mice can also be obtained from the Jackson Laboratory (Maine, US) with the strain name B6.129P2.-Apoe^tm1Unc/J(http://jaxmice.jax.org).
ApoE−/− mice (n=10) were fed with normal diet for 8 weeks post natum, followed by western chow diet for another 8 weeks. The western chow diet consists of 21% by weight fat, 1.5% by weight cholesterol and no cholic acid (“high fat diet”).
This type of western chow diet is known to force atherosclerotic plaque formation on the indicated time line in ApoE−/− mice. After eight weeks of being fed with western chow diet, the mice were segregated into two groups with each group comprising five mice. In the control group A, the mice were further fed with the western chow diet for additional four weeks. In the other group B, the ApoE−/− mice were fed with a western chow diet comprising 0.5% w/w nor-UDCA for additional four weeks. Considering a food intake of 4 g/day of chow per mouse, this corresponds to 20 mg/day of nor-UDCA per mouse.
The experimental setup is depicted in FIG. 1.

[4] = treatment study, 0.5% w/w in western chow diet for 4 weeks

Compound | % plaques in the aortic arch (plaque area versus total area, en-face red oil) (ApoE−/− mice [1]; [4]) | plaques in red-oil stained aortic valve cross-sections (histological analysis) (ApoE−/− mice [1]; [4]) | weight of the brown adipose tissue (ApoE−/− mice [2]; FIG. 18) | extent and size of atherosclerotic plaque, aorta en-face stained with red oil (LDLR−/− mice) | arteriosclerotic plaques in red-oil stained aorta cross-sections (histological analysis) (ApoE−/− mice [3]; 20 weeks post natum, FIG. 2) | sclerotic area versus the aorta area (morphometric analysis) (ApoE−/− mice [3]; FIG. 3) | number of hepatic neutrophil granulocytes (CD11b-positive cells in liver) (ApoE−/− mice [1]; 0.5% w/w in western chow diet for 4 weeks after 8 weeks western chow diet, FIG. 7) | expression level of p-JNK in liver tissue (Western blot) (ApoE−/− mice [1]; 0.5% w/w in western chow diet for 4 weeks after 8 weeks western chow diet, FIG. 8) | aortic valve plaque area versus total surface area (plaques in % of the surface area) (ApoE−/− mice [1]; treatment study, 0.5% w/w in western chow diet for 4 weeks, FIG. 13 quantification) | hepatic triglyceride levels (ApoE−/− mice [1]; treatment study, 0.5% w/w in western chow diet for 4 weeks, compared to control or UDCA-treated mice, FIG. 9) | serum transaminase (alanin-amino-transferase) levels (ApoE−/− mice [1]; treatment study, 0.5% w/w in western chow diet for 4 weeks, compared to control, FIG. 10) | total serum cholesterol levels (ApoE−/− mice [1]; treatment study, 0.5% w/w in western chow diet for 4 weeks, compared to control, FIG. 11) | hepatic triglyceride amounts, liver preparations stained with oil-red (histology) (ApoE−/− mice [2]; FIG. 15 a-c) | total serum cholesterol levels (ApoE−/− mice [2]; FIG. 17) | extent and size of atherosclerotic plaques, aorta en-face stained with red oil (ApoE−/− mice [2]; FIG. 19) | serum transaminase (alanin-amino-transferase) levels (ApoE−/− mice [2]; compared to control and UDCA, FIG. 16) | amount (weight) of white adipose tissue (ApoE−/− mice [2]; compared to control or UDCA-treated mice, FIG. 18) | hepatic triglyceride levels (quantification in liver homogenate) (ApoE−/− mice [2]; compared to control or UDCA-treated mice, FIG. 15 d) | sclerotic area versus the total aorta area (morphometric analysis) (ApoE−/− mice [2]; vs control, FIG. 20)
C[C@H](CCC(=O)O)[C@H]1CC[C@H]2[C@@H]3[C@@H](O)C[C@@H]4C[C@H](O)CC[C@]4(C)[C@H]3CC[C@]12C [UDCA, reference compound] | decreasing the percent of plaques | the amount of plaques is reduced | neither UDCA nor nor-UDCA had an influence |  |  |  |  |  |  |  |  |  |  |  |  |  |  |  | 
C[C@H](CC(=O)O)[C@H]1CC[C@H]2[C@@H]3[C@@H](O)C[C@@H]4C[C@H](O)CC[C@]4(C)[C@H]3CC[C@]12C [nor-UDCA, 24-nor[3α,7β-dihydroxy-5β-cholan-23-oic] acid] | decreasing the percent of plaques | the amount of plaques is reduced | neither UDCA nor nor-UDCA had an influence | significantly reduced | significantly reduced extent of these plaques | significantly smaller | clearly reduced | capable of downregulating the expression of p-JNK | significant reduction of said % plaques | capable of significantly reducing the triglyceride-amount in the liver | trend of reducing the serum transaminase levels | seems to be capable of lowering the total cholesterol | hepatic triglyceride amounts are decreased | does not seem to reduce serum cholesterol levels | significantly reduced | significantly reduces the serum transaminase levels | strong reduction of the amount of white adipose tissue | capable of significantly reducing the triglyceride-amount in the liver | significantly smaller

— patent US20100311708A1, “USE OF NOR-BILE ACIDS IN THE TREATMENT OF ARTERIOSCLEROSIS” (priority 2007, published 2010)
